Assay results as given in ChEMBL document CHEMBL1800002, “Indazole derivatives as novel bradykinin B1 receptor antagonists” (Bioorg Med Chem Lett, 2010).

Tests used:
[1] = target: ATP-dependent translocase ABCB1 (Homo sapiens, UniProt P08183); assay: Drug transport assessed as MDR1 -mediated transcellular transport ratio by P-gp transport assay; format: ADME
[2] = Apparent passive permeability coefficient by cell based assay; format: ADME
Cannabinoid receptor 2 = Cannabinoid receptor 2 (Homo sapiens, UniProt P34972); assay: Displacement of radioligand from human CB2 receptor expressed in CHO cells; format: cell-based
[3] = Clearance in Mongrel dog at 3 mg/kg, po or 1 mg/kg, iv; format: ADME, organism-based, Canis lupus familiaris; conditions: in vivo
[4] = Half life in Mongrel dog at 3 mg/kg, po or 1 mg/kg, iv; format: ADME, organism-based, Canis lupus familiaris; conditions: in vivo
Liver microsomes = assay: Stability in human liver microsomes; format: ADME, Microsome
[5] = Half life in Sprague-Dawley rat at 10 mg/kg, po or 2 mg/kg, iv; format: ADME, organism-based; conditions: in vivo
[6] = Clearance in Sprague-Dawley rat at 10 mg/kg, po or 2 mg/kg, iv; format: ADME, organism-based; conditions: in vivo
[7] = Oral bioavailability in Sprague-Dawley rat at 10 mg/kg; format: ADME, organism-based; conditions: in vivo

Cannabinoid receptor 2, sequence (P34972 whole entry): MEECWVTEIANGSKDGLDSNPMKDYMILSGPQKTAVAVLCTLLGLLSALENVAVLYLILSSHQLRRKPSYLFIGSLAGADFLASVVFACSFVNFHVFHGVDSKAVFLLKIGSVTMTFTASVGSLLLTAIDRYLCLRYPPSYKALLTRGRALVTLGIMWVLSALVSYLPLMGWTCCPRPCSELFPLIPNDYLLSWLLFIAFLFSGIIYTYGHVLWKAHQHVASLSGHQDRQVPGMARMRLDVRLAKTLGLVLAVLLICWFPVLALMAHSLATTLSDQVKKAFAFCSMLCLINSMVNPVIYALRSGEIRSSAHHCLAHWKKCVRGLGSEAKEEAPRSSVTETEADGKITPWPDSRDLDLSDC
ATP-dependent translocase ABCB1, sequence (P08183 whole entry): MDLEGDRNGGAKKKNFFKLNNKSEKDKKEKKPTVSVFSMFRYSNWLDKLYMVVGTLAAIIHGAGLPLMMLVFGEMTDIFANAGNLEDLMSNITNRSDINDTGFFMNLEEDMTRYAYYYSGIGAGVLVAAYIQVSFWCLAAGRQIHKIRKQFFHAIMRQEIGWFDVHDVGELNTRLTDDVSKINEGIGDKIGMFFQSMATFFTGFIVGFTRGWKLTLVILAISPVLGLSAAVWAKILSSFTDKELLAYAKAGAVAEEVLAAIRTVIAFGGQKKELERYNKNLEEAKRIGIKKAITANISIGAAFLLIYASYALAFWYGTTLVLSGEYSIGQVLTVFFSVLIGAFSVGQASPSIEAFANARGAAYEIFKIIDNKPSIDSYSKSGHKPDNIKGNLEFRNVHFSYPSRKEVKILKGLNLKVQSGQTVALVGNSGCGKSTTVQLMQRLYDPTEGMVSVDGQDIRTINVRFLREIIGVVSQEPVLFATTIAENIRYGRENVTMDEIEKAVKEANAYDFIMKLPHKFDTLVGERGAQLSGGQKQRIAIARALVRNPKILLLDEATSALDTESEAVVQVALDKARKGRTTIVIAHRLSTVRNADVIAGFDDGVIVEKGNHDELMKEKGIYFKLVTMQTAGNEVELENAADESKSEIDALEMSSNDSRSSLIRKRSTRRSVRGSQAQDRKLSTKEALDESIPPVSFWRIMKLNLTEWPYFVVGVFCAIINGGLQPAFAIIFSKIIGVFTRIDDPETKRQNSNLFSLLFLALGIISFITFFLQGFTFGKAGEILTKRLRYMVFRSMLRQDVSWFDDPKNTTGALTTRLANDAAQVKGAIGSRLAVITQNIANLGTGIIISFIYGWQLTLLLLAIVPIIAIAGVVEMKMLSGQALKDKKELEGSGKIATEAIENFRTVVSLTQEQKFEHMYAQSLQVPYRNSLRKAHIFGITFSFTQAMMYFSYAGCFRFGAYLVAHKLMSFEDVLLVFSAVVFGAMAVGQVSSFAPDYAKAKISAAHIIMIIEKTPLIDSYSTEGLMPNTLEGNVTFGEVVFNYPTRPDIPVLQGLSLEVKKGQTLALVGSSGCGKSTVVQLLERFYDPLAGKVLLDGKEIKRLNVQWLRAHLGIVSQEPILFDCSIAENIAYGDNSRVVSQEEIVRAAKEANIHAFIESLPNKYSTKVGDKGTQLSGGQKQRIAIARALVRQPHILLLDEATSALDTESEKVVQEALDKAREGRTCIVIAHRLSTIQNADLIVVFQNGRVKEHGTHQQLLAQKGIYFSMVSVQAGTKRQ

Row | Ratio [1] | Papp [2] [×10⁻⁶ cm/s] | Ki (Cannabinoid receptor 2) [µM] | clearance [3] [mL/min/kg] | half-life [4] [h] | SMILES | other results
1 | 29.4 | 25 |  |  |  | C[C@@H](NC(=O)C1(NC(=O)c2ccnnc2)CC1)c1ccc(-n2nc(Cl)c3ccccc32)cc1F | 
2 | 2.3 | 21 |  | 9.6 | 2.4 | Cc1nnsc1C(=O)NC1(C(=O)N[C@H](C)c2ccc(-n3nc(Cl)c4ccccc43)cc2F)CC1 | 
3 | 5.9 | 24 |  |  |  | C[C@@H](NC(=O)C1(NC(=O)c2cncnc2)CC1)c1ccc(-n2nc(Cl)c3ccccc32)cc1F | 
4 | 1.9 | 22 |  | 4.3 | 2.6 | Cc1cncc(C(=O)NC2(C(=O)N[C@H](C)c3ccc(-n4nc(Cl)c5ccccc54)cc3F)CC2)c1 | 
5 | 55.6 | 19 |  |  |  | C[C@@H](NC(=O)C1(NC(=O)c2cn[nH]c2)CC1)c1ccc(-n2nc(Cl)c3ccccc32)cc1F | Stability (Liver microsomes): Stable
6 | 1.8 | 24 |  | 10.5 | 15.1 | C[C@@H](NC(=O)C1(NC(=O)c2cncc(Cl)n2)CC1)c1ccc(-n2nc(Cl)c3ccccc32)cc1F | half-life [5]: 1.6 h; clearance [6]: 105 mL/min/kg
7 | 2.3 | 13 |  | 3.8 | 7.6 | C[C@@H](NC(=O)C1(NC(=O)c2cncc(Br)c2)CC1)c1ccc(-n2nc(Cl)c3ccccc32)cc1F | bioavailability [7]: 24%; half-life [5]: 3.1 h; clearance [6]: 2.5 mL/min/kg
8 | 5.3 | 21 |  | 5.5 | 2.3 | COc1cncc(C(=O)NC2(C(=O)N[C@H](C)c3ccc(-n4nc(Cl)c5ccccc54)cc3F)CC2)c1 | bioavailability [7]: 6%; half-life [5]: 0.7 h; clearance [6]: 7.8 mL/min/kg
9 | 2.8 | 19 |  | 1.1 | 4.3 | C[C@@H](NC(=O)C1(NC(=O)c2cncs2)CC1)c1ccc(-n2nc(Cl)c3ccccc32)cc1F | 
10 | 2.2 | 8.2 |  | 2.6 | 7.1 | C[C@@H](NC(=O)C1(NC(=O)c2ccc(Br)nc2)CC1)c1ccc(-n2nc(Cl)c3ccccc32)cc1F | 
11 | 1.6 | 30 |  |  |  | C[C@@H](NC(=O)C1(NC(=O)c2cnccn2)CC1)c1ccc(-n2nc(Cl)c3ccccc32)cc1F | 
12 | 7.5 | 24 |  |  |  | C[C@@H](NC(=O)C1(NC(=O)c2cncc(F)c2)CC1)c1ccc(-n2nc(Cl)c3ccccc32)cc1F | 
13 | 89 | 18 |  |  |  | C[C@@H](NC(=O)C1(NC(=O)c2cncc(O)c2)CC1)c1ccc(-n2nc(Cl)c3ccccc32)cc1F | 
14 | 1.8 | 14 |  | 1.7 | 8.3 | COc1ncc(C(=O)NC2(C(=O)N[C@H](C)c3ccc(-n4nc(Cl)c5ccccc54)cc3F)CC2)s1 | bioavailability [7]: 13%; half-life [5]: 8.3 h; clearance [6]: 12.7 mL/min/kg
15 | 1.6 | 26 | > 10 | 1.3 | 20.8 | COc1cc(C(=O)NC2(C(=O)N[C@H](C)c3ccc(-n4nc(Cl)c5ccccc54)cc3F)CC2)on1 | bioavailability [7]: 49%; half-life [5]: 3.1 h; clearance [6]: 5.3 mL/min/kg

The next lines start with the compound.

Row | SMILES | Ratio [1] | Papp [2] [×10⁻⁶ cm/s] | Ki (Cannabinoid receptor 2) [µM] | clearance [3] [mL/min/kg] | half-life [4] [h] | other results
16 | COc1cc(C(=O)NC2(C(=O)N[C@H](C)c3ccc(-n4nc(C#N)c5ccccc54)cc3F)CC2)on1 |  |  | > 10 |  |  | 
17 | C[C@@H](NC(=O)C1(NC(=O)c2cncc(Cl)c2)CC1)c1ccc(-n2nc(Cl)c3ccccc32)cc1F | 2.5 | 15 |  | 3.1 | 6 | 
18 | COc1cc(C(=O)NC2(C(=O)N[C@H](C)c3ccc(-n4ncc5ccccc54)cc3F)CC2)on1 |  |  | > 10 |  |  | 
19 | COc1cc(C(=O)NC2(C(=O)N[C@H](C)c3ccc(-n4nc(C5CC5)c5ccccc54)cc3F)CC2)on1 |  |  | > 10 |  |  | 
20 | COc1cc(C(=O)NC2(C(=O)N[C@H](C)c3ccc(-n4nc(OC)c5ccccc54)cc3F)CC2)on1 |  |  | > 10 |  |  | 
21 | COc1cc(C(=O)NC2(C(=O)N[C@H](C)c3ccc(-n4[nH]c(=O)c5ccccc54)cc3F)CC2)on1 |  |  | > 10 |  |  | 
22 | COc1cc(C(=O)NC2(C(=O)N[C@H](C)c3ccc(-n4nc(Br)c5ccccc54)cc3F)CC2)on1 |  |  | > 10 |  |  | 
23 | COc1cc(C(=O)NC2(C(=O)N[C@H](C)c3ccc(-n4nc(-c5ccccc5)c5ccccc54)cc3F)CC2)on1 |  |  | > 10 |  |  | 
24 | COc1cc(C(=O)NC2(C(=O)N[C@H](C)c3ccc(-n4nc(C)c5ccccc54)cc3F)CC2)on1 |  |  | > 10 |  |  | 
25 | COC(=O)c1c(F)cccc1-c1ccc(CNC(=O)C2(NC(=O)C(F)(F)F)CC2)c(F)c1 | 4.1 |  |  |  |  | 
26 | CCc1nn(-c2ccc([C@@H](C)NC(=O)C3(NC(=O)c4cc(OC)no4)CC3)c(F)c2)c2ccccc12 |  |  | > 10 |  |  | 
27 | Cc1ncsc1C(=O)NC1(C(=O)N[C@H](C)c2ccc(-n3nc(Cl)c4ccccc43)cc2F)CC1 |  |  |  |  |  | Stability (Liver microsomes): Unstable
